According to patent US10045983B2, “Heteroaryl pyridone and aza-pyrodine compounds” (Genentech, Inc., priority 2011, dated 2018):
Read-outs that look alike come from different tables or passages of the source.

Experiment: CD69 Whole Blood Assay (CD69 Hu Blood FACS)
Type: cell-based, human
Settings: Lymphocyte, human whole blood, anti-IgM activated B lymphocytes, FACS, IC70
In short: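 Compounds tested for blocking B-cell CD69 induction by flow cytometry in human whole blood, with activation via anti-human IgM goat F(ab′)2 crosslinking of surface IgM.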

[1] = Table 2 (unit inferred), read-out: CD69 Hu Blood FACS (IC70)
[2] = Table 1, read-out: CD69 Hu Blood FACS IC70

SMILES: Cn1cc(-c2ccnc(N3CCn4c(cc5c4CCCC5)C3=O)c2CO)cc(Nc2ccc(C3=CCN(C4COC4)CC3)cn2)c1=O [Example 200, 2-[3-(hydroxymethyl)-4-[1-methyl-5-[[5-[1-(oxetan-3-yl)-3,6-dihydro-2H-pyridin-4-yl]-2-pyridyl]amino]-6-oxo-3-pyridyl]-2-pyridyl]-3,4,6,7,8,9-hexahydropyrazino[1,2-a]indol-1-one]
- IC70 [1]: 636 nM

SMILES: CC(=O)N1CCn2nc(Nc3cc(-c4ccnc(N5CCn6c7c(c(F)c6C5=O)CCCC7)c4CO)cn(C)c3=O)cc2C1 [Example 255, 2-[4-[5-[(5-acetyl-6,7-dihydro-4H-pyrazolo[1,5-a]pyrazin-2-yl)amino]-1-methyl-6-oxo-3-pyridyl]-3-(hydroxymethyl)-2-pyridyl]-10-fluoro-3,4,6,7,8,9-hexahydropyrazino[1,2-a]indol-1-one]
- IC70 [1]: 94 nM

SMILES: Cn1cc(-c2ccnc(N3CCn4c5c(c(F)c4C3=O)CCCC5)c2CO)cc(Nc2ccc(N3CCN(C4COC4)CC3)cn2)c1=O [Example 134, 10-Fluoro-2-(3-(hydroxymethyl)-4-(1-methyl-5-(5-(4-(oxetan-3-yl)piperazin-1-yl)pyridin-2-ylamino)-6-oxo-1,6-dihydropyridin-3-yl)pyridin-2-yl)-3,4,6,7,8,9-hexahydropyrazino[1,2-a]indol-1(2H)-one]
- IC70 [2]: 94.4 nM

SMILES: Cn1cc(-c2ccnc(N3CCc4c(sc5c4CCCC5)C3=O)c2CO)cc(Nc2ccc(N3CCN(C4COC4)CC3)cn2)c1=O [Example 169, 2-{3′-Hydroxymethyl-1-methyl-5-[5-(4-oxetan-3-yl-piperazin-1-yl)-pyridin-2-ylamino]-6-oxo-1,6-dihydro-[3,4′]bipyridinyl-2′-yl}-3,4,5,6,7,8-hexahydro-2H-benzo[4,5]thieno[2,3-c]pyridin-1-one]
- IC70 [2]: 206 nM

SMILES: Cn1cc(-c2ccnc(N3CCn4c5c(c(F)c4C3=O)CCCC5)c2CO)cc(Nc2ccccn2)c1=O [Example 183, 10-fluoro-2-(3-(hydroxymethyl)-4-(1-methyl-6-oxo-5-(pyridin-2-ylamino)-1,6-dihydropyridin-3-yl)pyridin-2-yl)-3,4,6,7,8,9-hexahydropyrazino[1,2-a]indol-1(2H)-one]
- IC70 [2]: 906 nM

SMILES: Cc1nccc(Nc2cc(-c3ccnc(N4CCn5c6c(c(F)c5C4=O)CCCC6)c3CO)cn(C)c2=O)n1 [Example 213, 10-fluoro-2-[3-(hydroxymethyl)-4-[1-methyl-5-[(2-methylpyrimidin-4-yl)amino]-6-oxo-3-pyridyl]-2-pyridyl]-3,4,6,7,8,9-hexahydropyrazino[1,2-a]indol-1-one]
- IC70 [1]: 620 nM

SMILES: CN1Cc2cc(Nc3cc(-c4ccnc(N5CCc6c(sc7c6CC(C)(C)C7)C5=O)c4CO)cn(C)c3=O)nn2CC1=O [Example 317, 3-[3-(hydroxymethyl)-4-[1-methyl-5-[(5-methyl-6-oxo-4,7-dihydropyrazolo[1,5-a]pyrazin-2-yl)amino]-6-oxo-3-pyridyl]-2-pyridyl]-7,7-dimethyl-1,2,6,8-tetrahydrocyclopenta[3,4]thieno[1,3-c]pyridin-4-one]
- IC70 [1]: 58.6 nM

SMILES: Cc1ccc(Nc2cc(-c3ccnc(N4CCn5c(cc6c5CC(C)(C)C6)C4=O)c3CO)cn(C)c2=O)nc1 [Example 281, 3-[3-(hydroxymethyl)-4-[1-methyl-5-[(5-methyl-2-pyridyl)amino]-6-oxo-3-pyridyl]-2-pyridyl]-7,7-dimethyl-1,2,6,8-tetrahydrocyclopenta[3,4]pyrrolo[3,5-b]pyrazin-4-one]
- IC70 [1]: 718 nM

SMILES: Cn1cc(-c2ccnc(N3CCn4c5c(c(F)c4C3=O)CCCC5)c2CO)cc(Nc2ccncn2)c1=O [Example 146, 10-Fluoro-2-(3-(hydroxymethyl)-4-(1-methyl-6-oxo-5-(pyrimidin-4-ylamino)-1,6-dihydropyridin-3-yl)pyridin-2-yl)-3,4,6,7,8,9-hexahydropyrazino[1,2-a]indol-1(2H)-one]
- IC70 [2]: 85.6 nM

SMILES: Cn1cc(-c2ccnc(N3CCn4c(cc5c4CC(C)(C)C5)C3=O)c2CO)cc(Nc2cc3n(n2)CCN(CCC#N)C3)c1=O [Example 338, 3-[2-[[5-[2-(7,7-dimethyl-4-oxo-1,2,6,8-tetrahydrocyclopenta[3,4]pyrrolo[3,5-b]pyrazin-3-yl)-3-(hydroxymethyl)-4-pyridyl]-1-methyl-2-oxo-3-pyridyl]amino]-6,7-dihydro-4H-pyrazolo[155-a]pyrazin-5-yl]propanenitrile]
- IC70 [1]: 17.8 nM

SMILES: C[C@H]1CN(C2COC2)CCN1c1cnc(Nc2cc(-c3ccnc(N4CCn5c(cc6c5CCCC6)C4=O)c3CO)cn(C)c2=O)cn1 [Example 228, 2-[3-(hydroxymethyl)-4-[1-methyl-5-[[5-[(2S)-2-methyl-4-(oxetan-3-yl)piperazin-1-yl]pyrazin-2-yl]amino]-6-oxo-3-pyridyl]-2-pyridyl]-3,4,6,7,8,9-hexahydropyrazino[1,2-a]indol-1-one]
- IC70 [1]: 369 nM

SMILES: Cn1cc(-c2ccnc(N3CCc4c(cc5n4CCCC5)C3=O)c2CO)cc(Nc2ccc(N3CCN(C4COC4)CC3)cn2)c1=O [Example 139, 2-(3-(Hydroxymethyl)-4-(1-methyl-5-(5-(4-(oxetan-3-yl)piperazin-1-yl)pyridine-2-ylamino)-6-oxo-1,6-dihydropyridin-3-yl)pyridin-2-yl)-3,4,6,7,8,9-hexahydropyrido[3,4-b]indolizin-1(2H)-one]
- IC70 [2]: 326 nM

SMILES: C[C@H]1CN(C2COC2)CCN1c1cnc(Nc2cc(-c3ccnc(-n4ncc5c6c(sc5c4=O)CCCC6)c3CO)cn(C)c2=O)cn1 [Example 230, 3-[3-(hydroxymethyl)-4-[1-methyl-5-[[5-[(2S)-2-methyl-4-(oxetan-3-yl)piperazin-1-yl]pyrazin-2-yl]amino]-6-oxo-3-pyridyl]-2-pyridyl]-6,7,8,9-tetrahydrobenzothiopheno[2,3-d]pyridazin-4-one]
- IC70 [1]: 179 nM

SMILES: Cn1cc(-c2ccnc(N3CCn4c(cc5c4CCCC5)C3=O)c2CO)cc(Nc2nccnn2)c1=O [Example 172, 2-(4-(5-(1,2,4-triazin-3-ylamino)-1-methyl-6-oxo-1,6-dihydropyridin-3-yl)-3-(hydroxymethyl)pyridin-2-yl)-3,4,6,7,8,9-hexahydropyrazino[1,2-a]indol-1(2H)-one]
- IC70 [2]: 5000 nM

SMILES: Cn1cc(-c2ccnc(N3CCn4c(cc5c4CC(C)(C)C5)C3=O)c2CO)nc(Nc2ccc3nccn3c2)c1=O [Example 201, 3-[3-(hydroxymethyl)-4-[6-(imidazo[1,2-a]pyridin-6-ylamino)-4-methyl-5-oxo-pyrazin-2-yl]-2-pyridyl]-7,7-dimethyl-1,2,6,8-tetrahydrocyclopenta[3,4]pyrrolo[3,5-b]pyrazin-4-one]
- IC70 [1]: 3300 nM

SMILES: C[C@H]1CN(C2COC2)CCN1c1ccc(Nc2cc(-c3ccnc(N4CCn5c(cc6c5CC(C)(C)C6)C4=O)c3CO)n[nH]c2=O)nc1 [Example 253, 3-[3-(hydroxymethyl)-4-[5-[[5-[(2S)-2-methyl-4-(oxetan-3-yl)piperazin-1-yl]-2-pyridyl]amino]-6-oxo-1H-pyridazin-3-yl]-2-pyridyl]-7,7-dimethyl-1,2,6,8-tetrahydrocyclopenta[3,4]pyrrolo[3,5-b]pyrazin-4-one]
- IC70 [1]: 16.4 nM

SMILES: Cc1nccc(Nc2cc(-c3cncc(N4CCn5c(cc6c5CC(C)(C)C6)C4=O)c3CO)cn(C)c2=O)n1 [Example 215, 3-[4-(hydroxymethyl)-5-[1-methyl-5-[(2-methylpyrimidin-4-yl)amino]-6-oxo-3-pyridyl]-3-pyridyl]-7,7-dimethyl-1,2,6,8-tetrahydrocyclopenta[3,4]pyrrolo[3,5-b]pyrazin-4-one]
- IC70 [1]: 457 nM

SMILES: Cn1cc(Nc2cc(-c3ccnc(N4CCc5c(sc6c5CC(C)(C)C6)C4=O)c3CO)cn(C)c2=O)nn1 [Example 333, 3-[3-(hydroxymethyl)-4-[1-methyl-5-[(1-methyltriazol-4-yl)amino]-6-oxo-3-pyridyl]-2-pyridyl]-7,7-dimethyl-1,2,6,8-tetrahydrocyclopenta[3,4]thieno[1,3-c]pyridin-4-one]
- IC70 [1]: 209 nM

SMILES: Cn1cc(-c2ccnc(N3CCn4c(cc5c4CC(C)(C)C5)C3=O)c2CO)cc(Nc2ccc(N3CC(O)C3)cn2)c1=O [Example 314, 3-[4-[5-[[5-(3-hydroxyazetidin-1-yl)-2-pyridyl]amino]-1-methyl-6-oxo-3-pyridyl]-3-(hydroxymethyl)-2-pyridyl]-7,7-dimethyl-1,2,6,8-tetrahydrocyclopenta[3,4]pyrrolo[3,5-b]pyrazin-4-one]
- IC70 [1]: 44.6 nM

SMILES: Cn1cc(-c2ccnc(N3CCn4c(cc5c4CC(C)(C)C5)C3=O)c2CO)cc(Nc2ccn3ccnc3n2)c1=O [Example 199, 3-[3-(hydroxymethyl)-4-[5-(imidazo[1,2-a]pyrimidin-7-ylamino)-1-methyl-6-oxo-3-pyridyl]-2-pyridyl]-7,7-dimethyl-1,2,6,8-tetrahydrocyclopenta[3,4]pyrrolo[3,5-b]pyrazin-4-one]
- IC70 [1]: 934 nM

SMILES: CN1Cc2cc(Nc3cc(-c4ccnc(N5CCn6c(cc7c6CC(C)(C)C7)C5=O)c4CO)cn(C)c3=O)nn2CC1=O [Example 313, 3-[3-(hydroxymethyl)-4-[1-methyl-5-[(5-methyl-6-oxo-4,7-dihydropyrazolo[1,5-a]pyrazin-2-yl)amino]-6-oxo-3-pyridyl]-2-pyridyl]-7,7-dimethyl-1,2,6,8-tetrahydrocyclopenta[3,4]pyrrolo[3,5-b]pyrazin-4-one]
- IC70 [1]: 19.1 nM

SMILES: Cn1cc(-c2ccnc(-n3ncc4c5c(sc4c3=O)CCCC5)c2CO)cc(Nc2ccccn2)c1=O [Example 178, 3-[3′-Hydroxymethyl-1-methyl-6-oxo-5-(pyridin-2-ylamino)-1,6-dihydro-[3,4′]bipyridinyl-2′-yl]-6,7,8,9-tetrahydro-3H-benzo[4,5]thieno[2,3-d]pyridazin-4-one]
- IC70 [2]: 1100 nM

SMILES: Cn1nc(-c2ccnc(N3CCn4c(cc5c4CCCC5)C3=O)c2CO)cc(Nc2ccc(C(=O)N3CCOCC3)cn2)c1=O [Example 227, 2-[3-(hydroxymethyl)-4-[1-methyl-5-[[5-(morpholine-4-carbonyl)-2-pyridyl]amino]-6-oxo-pyridazin-3-yl]-2-pyridyl]-3,4,6,7,8,9-hexahydropyrazino[1,2-a]indol-1-one]
- IC70 [1]: 730 nM
